{"source": "the supplement of paper PMC10307832", "experiment_in_all_cases": "relative viability (nuclei count vs DMSO), 5 days (fraction); higher = more cells survive", "key": {"[1]": {"system": "NCI-H460", "procedure,_shortened": "(§1)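 Each reported value is a median over duplicate plates. It expresses relative viability: treated-well nuclei count divided by vehicle-well nuclei count. Lung cancer cell lines in 1536-well plates were dosed by pin tool a day after seeding, alone with one drug or with a fixed anchor-drug dose plus five library-drug doses (not always all listed) in √10 steps, and nuclei were counted after 5 days.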"}, "[2]": {"system": "NCI-H2126", "procedure,_shortened": "as §1"}, "[3]": {"system": "LCLC-97TM1", "procedure,_shortened": "as §1"}, "[4]": {"system": "HARA", "procedure,_shortened": "as §1"}, "[5]": {"system": "NCI-H23", "procedure,_shortened": "as §1"}, "[6]": {"system": "EMC-BAC-2", "procedure,_shortened": "as §1"}, "[7]": {"system": "NCI-H1944", "procedure,_shortened": "as §1"}, "[8]": {"system": "PC-3 [JPC-3]", "procedure,_shortened": "as §1"}, "[9]": {"system": "NCI-H1792", "procedure,_shortened": "as §1"}, "[10]": {"system": "NCI-H441", "procedure,_shortened": "as §1"}, "[11]": {"system": "NCI-H1793", "procedure,_shortened": "as §1"}, "[12]": {"system": "NCI-H1437", "procedure,_shortened": "as §1"}, "[13]": {"system": "NCI-H322M", "procedure,_shortened": "as §1"}, "[14]": {"system": "NCI-H522", "procedure,_shortened": "as §1"}, "[15]": {"system": "SW 900", "procedure,_shortened": "as §1"}, "[16]": {"system": "NCI-H1915", "procedure,_shortened": "as §1"}, "[17]": {"system": "HCC-827", "procedure,_shortened": "as §1"}, "[18]": {"system": "HCC-15", "procedure,_shortened": "as §1"}, "[19]": {"system": "ChaGo-K-1", "procedure,_shortened": "as §1"}, "[20]": {"system": "LU99A", "procedure,_shortened": "as §1"}, "[21]": {"system": "EKVX", "procedure,_shortened": "as §1"}, "[22]": {"system": "LC-2-ad", "procedure,_shortened": "as §1"}, "[23]": {"system": "H3255", "procedure,_shortened": "as §1"}, "[24]": {"system": "SK-LU-1", "procedure,_shortened": "as §1"}, "[25]": {"system": "NCI-H661", "procedure,_shortened": "as §1"}}, "data": [{"smiles": "CCCCCCCCCCCC1=C(O)C(=O)C=C(O)C1=O", "note": "[Embelin] + CC(=O)Nc1cccc(-n2c(=O)n(C3CC3)c(=O)c3c(Nc4ccc(I)cc4F)n(C)c(=O)c(C)c32)c1 [Trametinib] (partner 0.02 µM)", "values": [{"measurement": "relative viability", "setting": "[1]; first compound 0.08 µM", "result": 0.173}, {"measurement": "relative viability", "setting": "[1]; first compound 0.8 µM", "result": 0.202}, {"measurement": "relative viability", "setting": "[1]; first compound 2.53 µM", "result": 0.151}, {"measurement": "relative viability", "setting": "[1]; first compound 8 µM", "result": 0.112}, {"measurement": "relative viability", "setting": "[2]; first compound 0.08 µM", "result": 0.495}, {"measurement": "relative viability", "setting": "[2]; first compound 0.8 µM", "result": 0.548}, {"measurement": "relative viability", "setting": "[2]; first compound 2.53 µM", "result": 0.553}, {"measurement": "relative viability", "setting": "[2]; first compound 8 µM", "result": 0.546}, {"measurement": "relative viability", "setting": "[3]; first compound 0.08 µM", "result": 0.201}, {"measurement": "relative viability", "setting": "[3]; first compound 0.8 µM", "result": 0.18}, {"measurement": "relative viability", "setting": "[3]; first compound 2.53 µM", "result": 0.232}, {"measurement": "relative viability", "setting": "[3]; first compound 8 µM", "result": 0.184}, {"measurement": "relative viability", "setting": "[4]; first compound 0.08 µM", "result": 0.785}, {"measurement": "relative viability", "setting": "[4]; first compound 0.8 µM", "result": 1.05}, {"measurement": "relative viability", "setting": "[4]; first compound 2.53 µM", "result": 0.637}, {"measurement": "relative viability", "setting": "[4]; first compound 8 µM", "result": 0.536}, {"measurement": "relative viability", "setting": "[5]; first compound 0.08 µM", "result": 0.344}, {"measurement": "relative viability", "setting": "[5]; first compound 0.8 µM", "result": 0.476}, {"measurement": "relative viability", "setting": "[5]; first compound 2.53 µM", "result": 0.437}, {"measurement": "relative viability", "setting": "[5]; first compound 8 µM", "result": 0.396}, {"measurement": "relative viability", "setting": "[6]; first compound 0.08 µM", "result": 0.845}, {"measurement": "relative viability", "setting": "[6]; first compound 0.8 µM", "result": 1.08}, {"measurement": "relative viability", "setting": "[6]; first compound 2.53 µM", "result": 0.883}, {"measurement": "relative viability", "setting": "[6]; first compound 8 µM", "result": 0.913}, {"measurement": "relative viability", "setting": "[7]; first compound 0.08 µM", "result": 0.404}, {"measurement": "relative viability", "setting": "[7]; first compound 0.8 µM", "result": 0.436}, {"measurement": "relative viability", "setting": "[7]; first compound 2.53 µM", "result": 0.446}, {"measurement": "relative viability", "setting": "[7]; first compound 8 µM", "result": 0.428}, {"measurement": "relative viability", "setting": "[8]; first compound 0.08 µM", "result": 0.684}, {"measurement": "relative viability", "setting": "[8]; first compound 0.8 µM", "result": 0.75}, {"measurement": "relative viability", "setting": "[8]; first compound 2.53 µM", "result": 0.788}, {"measurement": "relative viability", "setting": "[8]; first compound 8 µM", "result": 0.614}, {"measurement": "relative viability", "setting": "[9]; first compound 0.08 µM", "result": 0.452}, {"measurement": "relative viability", "setting": "[9]; first compound 0.8 µM", "result": 0.539}, {"measurement": "relative viability", "setting": "[9]; first compound 2.53 µM", "result": 0.532}, {"measurement": "relative viability", "setting": "[9]; first compound 8 µM", "result": 0.459}, {"measurement": "relative viability", "setting": "[10]; first compound 0.08 µM", "result": 0.399}, {"measurement": "relative viability", "setting": "[10]; first compound 0.8 µM", "result": 0.584}, {"measurement": "relative viability", "setting": "[10]; first compound 2.53 µM", "result": 0.552}, {"measurement": "relative viability", "setting": "[10]; first compound 8 µM", "result": 0.465}, {"measurement": "relative viability", "setting": "[11]; first compound 0.08 µM", "result": 0.398}, {"measurement": "relative viability", "setting": "[11]; first compound 0.8 µM", "result": 0.446}, {"measurement": "relative viability", "setting": "[11]; first compound 2.53 µM", "result": 0.511}, {"measurement": "relative viability", "setting": "[11]; first compound 8 µM", "result": 0.419}, {"measurement": "relative viability", "setting": "[12]; first compound 0.08 µM", "result": 0.531}, {"measurement": "relative viability", "setting": "[12]; first compound 0.8 µM", "result": 0.607}, {"measurement": "relative viability", "setting": "[12]; first compound 2.53 µM", "result": 0.648}, {"measurement": "relative viability", "setting": "[12]; first compound 8 µM", "result": 0.505}, {"measurement": "relative viability", "setting": "[13]; first compound 0.08 µM", "result": 0.53}, {"measurement": "relative viability", "setting": "[13]; first compound 0.8 µM", "result": 0.543}, {"measurement": "relative viability", "setting": "[13]; first compound 2.53 µM", "result": 0.516}, {"measurement": "relative viability", "setting": "[13]; first compound 8 µM", "result": 0.49}, {"measurement": "relative viability", "setting": "[14]; first compound 0.08 µM", "result": 0.637}, {"measurement": "relative viability", "setting": "[14]; first compound 0.8 µM", "result": 0.817}, {"measurement": "relative viability", "setting": "[14]; first compound 2.53 µM", "result": 0.719}, {"measurement": "relative viability", "setting": "[14]; first compound 8 µM", "result": 0.765}, {"measurement": "relative viability", "setting": "[15]; first compound 0.08 µM", "result": 0.779}, {"measurement": "relative viability", "setting": "[15]; first compound 0.8 µM", "result": 0.962}, {"measurement": "relative viability", "setting": "[15]; first compound 2.53 µM", "result": 0.781}, {"measurement": "relative viability", "setting": "[15]; first compound 8 µM", "result": 1.15}, {"measurement": "relative viability", "setting": "[16]; first compound 0.08 µM", "result": 0.319}, {"measurement": "relative viability", "setting": "[16]; first compound 0.8 µM", "result": 0.33}, {"measurement": "relative viability", "setting": "[16]; first compound 2.53 µM", "result": 0.263}, {"measurement": "relative viability", "setting": "[16]; first compound 8 µM", "result": 0.295}, {"measurement": "relative viability", "setting": "[17]; first compound 0.08 µM", "result": 0.535}, {"measurement": "relative viability", "setting": "[17]; first compound 0.8 µM", "result": 0.588}, {"measurement": "relative viability", "setting": "[17]; first compound 2.53 µM", "result": 0.506}, {"measurement": "relative viability", "setting": "[17]; first compound 8 µM", "result": 0.487}, {"measurement": "relative viability", "setting": "[18]; first compound 0.08 µM", "result": 0.366}, {"measurement": "relative viability", "setting": "[18]; first compound 0.8 µM", "result": 0.435}, {"measurement": "relative viability", "setting": "[18]; first compound 2.53 µM", "result": 0.345}, {"measurement": "relative viability", "setting": "[18]; first compound 8 µM", "result": 0.383}, {"measurement": "relative viability", "setting": "[19]; first compound 0.08 µM", "result": 0.966}, {"measurement": "relative viability", "setting": "[19]; first compound 0.8 µM", "result": 0.871}, {"measurement": "relative viability", "setting": "[19]; first compound 2.53 µM", "result": 0.963}, {"measurement": "relative viability", "setting": "[19]; first compound 8 µM", "result": 0.922}, {"measurement": "relative viability", "setting": "[20]; first compound 0.08 µM", "result": 0.631}, {"measurement": "relative viability", "setting": "[20]; first compound 0.8 µM", "result": 0.596}, {"measurement": "relative viability", "setting": "[20]; first compound 2.53 µM", "result": 0.561}, {"measurement": "relative viability", "setting": "[20]; first compound 8 µM", "result": 0.526}, {"measurement": "relative viability", "setting": "[21]; first compound 0.08 µM", "result": 0.328}, {"measurement": "relative viability", "setting": "[21]; first compound 0.8 µM", "result": 0.472}, {"measurement": "relative viability", "setting": "[21]; first compound 2.53 µM", "result": 0.275}, {"measurement": "relative viability", "setting": "[21]; first compound 8 µM", "result": 0.429}, {"measurement": "relative viability", "setting": "[22]; first compound 0.08 µM", "result": 0.891}, {"measurement": "relative viability", "setting": "[22]; first compound 0.8 µM", "result": 0.98}, {"measurement": "relative viability", "setting": "[22]; first compound 2.53 µM", "result": 0.966}, {"measurement": "relative viability", "setting": "[22]; first compound 8 µM", "result": 1.02}, {"measurement": "relative viability", "setting": "[23]; first compound 0.08 µM", "result": 0.601}, {"measurement": "relative viability", "setting": "[23]; first compound 0.8 µM", "result": 0.764}, {"measurement": "relative viability", "setting": "[23]; first compound 2.53 µM", "result": 0.717}, {"measurement": "relative viability", "setting": "[23]; first compound 8 µM", "result": 0.647}, {"measurement": "relative viability", "setting": "[24]; first compound 0.08 µM", "result": 0.505}, {"measurement": "relative viability", "setting": "[24]; first compound 0.8 µM", "result": 0.542}, {"measurement": "relative viability", "setting": "[24]; first compound 2.53 µM", "result": 0.691}, {"measurement": "relative viability", "setting": "[24]; first compound 8 µM", "result": 0.39}, {"measurement": "relative viability", "setting": "[25]; first compound 0.08 µM", "result": 0.604}, {"measurement": "relative viability", "setting": "[25]; first compound 0.8 µM", "result": 0.729}, {"measurement": "relative viability", "setting": "[25]; first compound 2.53 µM", "result": 0.657}, {"measurement": "relative viability", "setting": "[25]; first compound 8 µM", "result": 0.521}]}]}
